Patent US20220396565A1 (Hoffmann-La Roche Inc., priority 2020, published 2022)
Structures can show the parent of a compound that is named as a salt.

Test system: Acinetobacter baumannii ATCC17961
Assay: Antimicrobial susceptibility testing: 90% growth inhibitory concentration (IC90) determination, Iso-Sensitest broth
Type: cell-based
Settings: Acinetobacter baumannii, ATCC17961, 90% growth inhibitory concentration, Acinetobacter baumannii ATCC17961, Iso-Sensitest broth; read-out: ATCC 17961 IC90
Experimental: The in vitro antimicrobial activity of the compounds was determined according to the following procedure:
The assay used a 10-points Iso-Sensitest broth medium to measure quantitatively the in vitro activity of the compounds against Acinetobacter baumannii ATCC17978 or ATCC17961.
Stock compounds in DMSO were serially twofold diluted (e.g. range from 10 to 0.02 μM final concentration) in 384 wells microtiter plates and inoculated with 49 μl the bacterial suspension in Iso-Sensitest medium to have a final cell concentration of ˜5×10^(5) CFU/ml in a final volume/well of 50 ul/well. Microtiter plates were incubated at 35±2° C.
Bacterial cell growth was determined with the measurement of optical density at k=600 nm each 20 minutes over a time course of 16 h. Growth inhibition was calculated during the logarithmic growth of the bacterial cells with determination of the concentration inhibiting 50% (IC50) and 90% (IC90) of the growth.
Table 1 provides the 90% growth inhibitory concentrations (IC90) in micromoles per liter of the compounds of present invention obtained against the strain Acinetobacter baumannii ATCC17978 or ATCC17961.

| IC90 | SMILES |
| --- | --- |
| 50 nM | COc1ccc(-c2cnc(C(=O)Nc3ccc(C(=O)N4CCN(C(=O)C5(O)CCNCC5)CC4)c(Cl)c3)n2C)c(F)c1F [Example 166, N-[3-chloro-4-[4-(4-hydroxypiperidine-4-carbonyl)piperazine-1-carbonyl]phenyl]-5-(2,3-difluoro-4-methoxy-phenyl)-1-methyl-imidazole-2-carboxamide formate] |
| 70 nM | CN(C)c1ccc(-c2cnc(C(=O)Nc3ccc(C(=O)N4CCN(C(=O)C5CCNCC5)CC4)c(Cl)c3)n2C)c(F)c1F [Example 262, N-[3-chloro-4-[4-(piperidine-4-carbonyl)piperazine-1-carbonyl]phenyl]-5-[4-(dimethylamino)-2,3-difluoro-phenyl]-1-methyl-imidazole-2-carboxamide formate] |
| 40 nM | COc1ccc(-c2cnc(C(=O)Nc3ccc(C(=O)N4CCN(C(=O)[C@H]5C[C@H](N)C5)CC4)c(Cl)c3)n2C)c(F)c1F [Example 137, N-[4-[4-(3-aminocyclobutanecarbonyl)piperazine-1-carbonyl]-3-chloro-phenyl]-5-(2,3-difluoro-4-methoxy-phenyl)-1-methyl-imidazole-2-carboxamide formate] |
| 90 nM | COc1ccc(-c2cnc(C(=O)Nc3ccc(C(=O)N4CC(NC(=O)C5CC(CN)C5)C4)c(Cl)c3)n2C)c(F)c1F (stereo not shown) [Example 218, N-(4-(3-(3-(aminomethyl)cyclobutane-1-carboxamido)azetidine-1-carbonyl)-3-chlorophenyl)-5-(2,3-difluoro-4-methoxyphenyl)-1-methyl-1H-imidazole-2-carboxamide 2,2,2-trifluoroacetate] |
| 50 nM | Cn1c(-c2ccc(OCC#N)c(F)c2Cl)cnc1C(=O)Nc1ccc(C(=O)N2CCN(C(=O)C3(O)CCNCC3)CC2)c(Cl)c1 [Example 251, 5-[2-chloro-4-(cyanomethoxy)-3-fluoro-phenyl]-N-[3-chloro-4-[4-(4-hydroxypiperidine-4-carbonyl)piperazine-1-carbonyl]phenyl]-1-methyl-imidazole-2-carboxamide formate] |
| 230 nM | COc1ccc(-c2cnc(C(=O)Nc3ccc(C(=O)N4CC5(C4)CN(C(=O)[C@@H]4C[C@@H](O)CN4)C5)c(Cl)c3)n2C)c(F)c1F [Example 112, N-[3-chloro-4-[2-[(2S,4R)-4-hydroxypyrrolidine-2-carbonyl]-2,6-diazaspiro[3.3]heptane-6-carbonyl]phenyl]-5-(2,3-difluoro-4-methoxy-phenyl)-1-methyl-imidazole-2-carboxamide] |

Continued, compound first:

| SMILES | IC90 |
| --- | --- |
| COc1ccc(-c2cnc(C(=O)Nc3ccc(C(=O)N4CCN(CC(N)=O)CC4)c(Cl)c3)n2C)c(F)c1F [Example 244, N-[4-[4-(2-amino-2-oxo-ethyl)piperazine-1-carbonyl]-3-chloro-phenyl]-5-(2,3-difluoro-4-methoxy-phenyl)-1-methyl-imidazole-2-carboxamide] | 100 nM |
| Cn1c(-c2ccc(OC(F)F)c(F)c2)cnc1C(=O)Nc1ccc(C(=O)N2CCN(C(=O)C3CCNCC3)CC2)c(Cl)c1 [Example 144, N-[3-chloro-4-[4-(piperidine-4-carbonyl)piperazine-1-carbonyl]phenyl]-5-[4-(difluoromethoxy)-3-fluoro-phenyl]-1-methyl-imidazole-2-carboxamide formate] | 60 nM |
| Cn1c(-c2ccc(F)c(F)c2F)cnc1C(=O)Nc1ccc(C(=O)N2CCN(C(=O)C3CCNCC3)CC2)c(Cl)c1 [Example 191, N-[3-chloro-4-[4-(piperidine-4-carbonyl)piperazine-1-carbonyl]phenyl]-1-methyl-5-(2,3,4-trifluorophenyl)imidazole-2-carboxamide formate] | 230 nM |

Same assay, conditions: Acinetobacter baumannii, ATCC17961, read-out: ATCC 17961 IC90

| SMILES | IC90 |
| --- | --- |
| Cn1c(-c2ccc(OCF)c(F)c2F)cnc1C(=O)Nc1ccc(C(=O)N2CCC(C(=O)NCCN)CC2)c(Cl)c1 [Example 88, N-(2-aminoethyl)-1-(2-chloro-4-(5-(2,3-difluoro-4-(fluoromethoxy)phenyl)-1-methyl-1H-imidazole-2-carboxamido)benzoyl) piperidine-4-carboxamide 2,2,2-trifluoroacetate] | 50 nM |
